Patent EP3683219A1, “COMPOUND INHIBITING BUTYRYLCHOLINESTERASE” (Julius-Maximilians-Universität Würzburg, priority 2019, dated 2020)
Like-named read-outs stand apart in the source and are kept apart here.

How the values were obtained:
[1] = test system: Aβ25-35-induced passive avoidance impairments; test: Step-through passive avoidance test, Aβ25-35-injected mice; type: in vivo, male Swiss mice; settings: 0.3-3 mg/kg ip o.d. day 1 to 7; retention day 10
hBChE [2] = molecular target: T1, hBChE (Homo sapiens, UniProt P06276); test: biochemical; type: biochemical; settings: for Selectivity index (IC50 hAChE/IC50 hBChE): hAChE over hBChE; for IC50 values (hBChE), in words: linker of 4 methylene groups; for fold lower activity than heptyl carbamate 7 (IC50 hBChE): compared with compound 7
Method: (§1) For evaluation of enzyme inhibition, Ellman's colorimetric assay was conducted as described in Ellman, G. L., Arch. Biochem. Biophys 1958, 74, 443-450 and Ellman, G. L. et al., Biochem. Pharmacol. 1961, 7, 88-95. Therefor, 5,5'-dithiobis-(2-nitrobenzoic acid) (DTNB) solution, respective Cholinesterase (ChE) and inhibitor were incubated together and enzyme activity was measured after 20 min. The long incubation time was needed to allow the carbamate transfer between ChE and inhibitor.
(§2) The carbamate residue was altered systematically by changing residues in the terminal position of carbamate moiety and different flexible alkylene linkers were introduced. […] Nevertheless, it must be noted that IC50 values only serve as a first indicator of inhibitor affinity and selectivity. Due to the chemical reaction of carbamate transfer the enzyme inhibition is strongly time dependent. […]

[3] = test system: Aβ25-35-induced spontaneous alternation deficits; test: Spontaneous alternation test in the Y-maze, Aβ25-35-injected mice; type: in vivo, male Swiss mice; settings: 0.3-3 mg/kg ip o.d. day 1 to 7; Y-maze day 8
Method: 2013, 38, pages 1706-1723.
AD-like cognitive dysfunctions were induced in male Swiss mice, 6 weeks old, weighing 31-36 g by intracerebroventricular (icv) injection of the oligomerized Aβ25-35 peptide into the mouse brain on day 1.
Compounds were weighed, dissolved in pure DMSO at a concentration of 1 mg/ml and diluted into final test concentrations with saline. The final percentage of DMSO in saline was 60% for all compounds. Vehicle solution used for control groups was 60% DMSO in saline. Compounds were injected intraperitoneally (ip) from day 1 to 7 and behavioral studies were conducted between day 8 and 10. Spatial working memory was evaluated using a spontaneous alternation test in a Y-maze on day 8. The Y-maze is made of grey polyvinylchloride. Each arm is 40 cm long, 13 cm high, 3 cm wide at the bottom, 10 cm wide at the top, and converging at an equal angle. Each mouse is placed at the end of one arm and allowed to explore the maze freely for 8 min. The sequence of arm entries (including possible returns into the same arm) was checked visually and noted down. If the mouse enters all three arms on consecutive occasion, this is defined as an alternation. Therefore, the total number of arm entries minus two is also the maximum number of alternations. The percentage of alternation was calculated as (actual alternations / maximum alternations) x 100. Parameters for the evaluation of behavior are given as the percentage of alternation (memory index) and a total number of arm entries (exploration index).
Figs. 7a-h show the effect of the compounds on Aβ25-35-induced spontaneous alternation deficits in mice. […] Figs. 7a, c, e, g: spontaneous alternation performance; Figs. 7b, d, f, h: number of arm entries in the Y-maze test performed at day 8.

hAChE = hAChE (Homo sapiens, UniProt P22303); test: Ellman's colorimetric assay, inhibition of hAChE; type: biochemical; settings: for inhibition at 100 µM / inhibition at 25 µM: read-out: inhibition of hAChE; for IC50 / plC50 ± SEM (hAChE): enzyme activity measured after 20 min incubation
Method: as §1, §2

hBChE [4] = molecular target: T1, hBChE; test: Decarbamoylation from hBChE, dilution experiments (recovery of enzyme activity, k4); type: biochemical; settings: decarbamoylation rate, after 1 h incubation and 1:1000 dilution
Method: To further investigate the presence and nature of a peripheral binding site, also the hydrolysis of carbamate and the resulting release of the inhibitor from the enzyme was investigated by measuring the time dependent recovery of enzyme activity. To measure the decarbamoylation rate k4, dilution experiments were performed with hBChE following the procedure described in Sawatzky, E. et al., ChemMedChem 2016, 11, 1540-1550 and in Bartolucci, C. et al., Biochem. J. 2012, 444, 269-277. A high concentration of enzyme and inhibitor where incubated for 1 h. The concentration of inhibitor was chosen, such that > 85% of hBChE was inhibited through carbamate transfer. Then the mixture was diluted with buffer 1:1000 to a concentration at which the enzyme is not further carbamoylated. Due to the hydrolysis and release of the carbamate from the catalytic active serine enzyme activity was recovered slowly. This regeneration of the enzyme was monitored at different time points after the dilution. […] A = (1−e^(k4 ⋅t))⋅(1−A0) + A0 [formula] Table 4. Kinetic values for decarbamoylation from hBChE of selected compounds

hBChE [5] = molecular target: T1, hBChE; test: Carbamoylation kinetics on hBChE (time-dependent inhibition, Kc and k3); type: biochemical; settings: for k3 [min^-1] hBChE: carbamoylation rate constant; for Kd: carbamoylation, pre-equilibrium constant
Source text: As carbamate based inhibitors (C-X) show a pseudo irreversible manner of binding, the IC50 values must be seen critically because two chemical reactions determine them: Carbamate (C) transfer onto the enzyme (E) and carbamate hydrolysis. So, the Kc values, k3 and k4 rate constants according to below formula were investigated for some representative compounds (c.f. Fig. 3 and Fig. 4). [formula]
The mechanism of enzyme inhibition can be divided into three steps: In a pre-equilibrium, the carbamate based inhibitor C-X is bound to the enzyme E and a complex (EC-X) is formed reversible and can be characterized with Kc. Then the carbamate C is transferred onto the enzyme E and binds covalently to form E-C with the rate constant k3 while carrier scaffold X is released. Then E-C is hydrolyzed and enzyme activity is recovered and the amine C' is released with the rate constant k4, also called decarbamoylation rate.
For the determination of Kc and k3 a similar experimental setup was used compared to the evaluation of IC50 values, whereas enzyme activity was measured at various time points after addition of inhibitor.
A = A0 ⋅e^(−kobs ⋅t) + A∞ [formula]
Plotting the enzyme activity (in %) against the incubation times, lead to nonlinear time-dependent inhibition curves for the respective inhibitor concentrations whereby kobs can be determined with an exponential fit correspondent to equation (I).
Furthermore, a hyperbolic curve is obtained, plotting the rate constant kobs against the inhibitor concentration [I], which is described by equation (II), with the substrate concentration [S] and the Michaelis-Menten constant KM. kobs = (k3 ⋅[I])/(KC ⋅(1+([S])/(KM)) + [I]) [formula]
This equation (II) can be rearranged to the reciprocal of kobs, to get a linear plot: (1)/(kobs) = (KC ⋅(1+([S])/(KM)))/(k3)⋅(1)/([I]) + (1)/(k3) [formula]
Since the substrate butyrylthiocholine iodide is not added directly to the enzyme and the inhibitor, but after the incubation of enzyme with inhibitor, [S] can be set to zero, leading to Michaelis-Menten like equation IV. (1)/(kobs) = (KC)/(k3)⋅(1)/([I]) + (1)/(k3) [formula]
Relating to the linear equation (IV), KC can be established from the slope and carbamoylation rate constant k3 from the y-intercept.
As a chemical reaction is taking place, Kc must be seen as a 'real' measure for quantification of enzyme inhibitor interactions. Due to the high costs in measurements on hBChE only some representative compounds were chosen to evaluate also in kinetic studies based on the results from IC50 measurements (table 3). Table 3. Kinetic values for carbamoylation on hBChE for selected representative compounds

[6] = enzyme activity measured after 20 min incubation
[7] = enzyme activity measured after 20 min incubation, read-out: IC50 hBChE

Sequence of hAChE (P22303 32-614): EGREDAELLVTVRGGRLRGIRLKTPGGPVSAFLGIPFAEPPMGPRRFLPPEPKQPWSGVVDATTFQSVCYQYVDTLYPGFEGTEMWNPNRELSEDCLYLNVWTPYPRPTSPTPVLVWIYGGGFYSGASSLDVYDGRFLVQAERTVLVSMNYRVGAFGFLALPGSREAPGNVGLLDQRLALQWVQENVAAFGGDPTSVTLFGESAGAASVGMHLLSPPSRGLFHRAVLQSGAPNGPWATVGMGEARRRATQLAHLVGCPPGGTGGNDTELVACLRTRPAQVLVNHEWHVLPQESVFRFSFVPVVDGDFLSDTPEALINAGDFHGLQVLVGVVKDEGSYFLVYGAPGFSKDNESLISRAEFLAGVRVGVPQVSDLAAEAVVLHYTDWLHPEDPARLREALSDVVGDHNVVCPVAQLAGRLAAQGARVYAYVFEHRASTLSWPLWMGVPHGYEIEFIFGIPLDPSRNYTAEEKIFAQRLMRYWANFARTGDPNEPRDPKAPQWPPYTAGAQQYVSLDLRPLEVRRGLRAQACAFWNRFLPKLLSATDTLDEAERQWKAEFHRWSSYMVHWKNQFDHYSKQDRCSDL
T1 sequence (P06276 29-602): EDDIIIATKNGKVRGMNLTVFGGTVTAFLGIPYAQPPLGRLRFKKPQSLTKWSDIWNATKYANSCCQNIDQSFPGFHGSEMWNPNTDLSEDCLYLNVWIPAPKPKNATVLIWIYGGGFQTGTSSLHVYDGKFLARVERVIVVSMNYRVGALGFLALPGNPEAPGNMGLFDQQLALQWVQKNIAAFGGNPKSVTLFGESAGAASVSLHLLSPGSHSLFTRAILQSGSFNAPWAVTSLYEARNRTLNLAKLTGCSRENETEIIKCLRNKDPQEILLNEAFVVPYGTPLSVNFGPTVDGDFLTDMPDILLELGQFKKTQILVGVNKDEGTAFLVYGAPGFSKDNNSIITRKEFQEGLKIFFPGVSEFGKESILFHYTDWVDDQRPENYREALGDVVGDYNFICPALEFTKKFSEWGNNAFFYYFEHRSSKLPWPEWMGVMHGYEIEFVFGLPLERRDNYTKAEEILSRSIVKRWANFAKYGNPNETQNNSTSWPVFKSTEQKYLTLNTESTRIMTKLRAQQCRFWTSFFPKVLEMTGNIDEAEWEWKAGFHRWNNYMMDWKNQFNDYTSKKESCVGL

SMILES	plC50 ± SEM (hBChE) (hBChE [2]; [6])	IC50 (hBChE [2]; [7]) [nM]	Selectivity index (IC50 hAChE/IC50 hBChE) (hBChE [2])	k4 (hBChE [4]) [h⁻¹]	k3 [min^-1] hBChE (hBChE [5]) [min⁻¹]	Kd (hBChE [5]) [nM]	further results
CN1c2ccc(O)cc2CN2CCc3ccccc3C21 (stereo not shown) [Compound 13, reference compound]	–	–	–	–	–	–	effect on Aβ25-35-induced passive avoidance deficits (step-through latency, retention) [1]: not active; BChE inhibition, in words (hBChE [2]): lacking BChE inhibition; effect on Aβ25-35-induced spontaneous alternation deficits [3]: not active
CN1c2ccc(OC(=O)NCCN3CCOCC3)cc2CN2CCc3ccccc3C21 (stereo not shown) [Compound 19a]	5.11 ± 0.04	7770	>10	–	–	–	inhibition at 100 µM (hAChE; 100 µM): 17%
CN1c2ccc(OC(=O)NCCCN3CCOCC3)cc2CN2CCc3ccccc3C21 (stereo not shown) [Compound 19b]	6.03 ± 0.02	938	>100	–	–	–	inhibition at 100 µM (hAChE; 100 µM): 13%
CN1c2ccc(OC(=O)NCCCCN3CCOCC3)cc2CN2CCc3ccccc3C21 (stereo not shown) [Compound 19c]	7.30 ± 0.02	50.6	>1000	0.48 ± 0.06	–	–	inhibition at 100 µM (hAChE; 100 µM): 13%; IC50 values (hBChE), in words (hBChE [2]): two-digit nanomolar
CN1c2ccc(OC(=O)NCCCCCCCCN3CCOCC3)cc2CN2CCc3ccccc3C21 (stereo not shown) [Compound 19e]	–	19.8	>1000	1.58 ± 0.15	–	–	inhibition at 100 µM (hAChE): 22%; IC50 (hBChE [2]): 85.1 nM
CN1c2ccc(OC(=O)NCCCCCCCCCCN3CCOCC3)cc2CN2CCc3ccccc3C21 (stereo not shown) [Compound 19f]	7.94 ± 0.07	11.5	>1000	–	–	–	inhibition at 100 µM (hAChE; 100 µM): 25%
CN1c2ccc(OC(=O)NCCN3CCc4ccccc4C3)cc2CN2CCc3ccccc3C21 (stereo not shown) [Compound 19g]	5.76 ± 0.05	1720	>10	–	>20	> 200000	inhibition at 10 µM (hAChE): 10%
CN1c2ccc(OC(=O)NCCCN3CCc4ccccc4C3)cc2CN2CCc3ccccc3C21 (stereo not shown) [Compound 19h]	5.94 ± 0.05	1160	>10	–	–	–	inhibition at 10 µM (hAChE): 12%
CN1c2ccc(OC(=O)NCCCCN3CCc4ccccc4C3)cc2CN2CCc3ccccc3C21 (stereo not shown) [Compound 19i]	6.72 ± 0.06	192	>100	0.028 ± 0.001	–	–	inhibition at 10 µM (hAChE): 16%; IC50 values (hBChE), in words (hBChE [2]): two-digit nanomolar
CN1c2ccc(OC(=O)NCCCCCCCCN3CCc4ccccc4C3)cc2CN2CCc3ccccc3C21 (stereo not shown) [Compound 19k]	7.49 ± 0.03	32.6	>1000	0.83 ± 0.06	–	–	inhibition at 10 µM (hAChE): 11%
CN1c2ccc(OC(=O)NCCCCCCCCCCN3CCc4ccccc4C3)cc2CN2CCc3ccccc3C21 (stereo not shown) [Compound 19l]	7.38 ±0.04	41.8	>1000	–	0.25 ± 0.04	5.68 ± 2.19	inhibition at 10 µM (hAChE): 15%; Kc values (hBChE), in words (hBChE [5]): one-digit nanomolar range
CN1c2ccc(OC(=O)NCCCCCCn3cnc4ccccc43)cc2CN2CCc3ccccc3C21 (stereo not shown) [Compound 19m]	8.13 ± 0.04	7.4	>1000	0.45 ± 0.04	0.26 ± 0.09	7.7 ± 4.6	inhibition at 25 µM (hAChE; 25 µM): 44%; Kc values (hBChE), in words (hBChE [5]): one-digit nanomolar range
CN1c2ccc(OC(=O)NCCCCCCn3ccnc3)cc2CN2CCc3ccccc3C21 (stereo not shown) [Compound 19n]	7.88 ± 0.06	13.3	>1000	0.82 ± 0.03	0.31 ± 0.15	13.1 ± 14.4	inhibition at 25 µM (hAChE; 25 µM): 18%; Kc values (hBChE), in words (hBChE [5]): one-digit nanomolar range
CN1c2ccc(OC(=O)NCCCCCCN3CCCC3)cc2CN2CCc3ccccc3C21 (stereo not shown) [Compound 19o]	–	34.3	26	0.98 ± 0.04	–	–	IC50 (hAChE): 880 nM; plC50 ± SEM (hAChE) (hAChE): 6.06 ± 0.03; IC50 (hBChE [2]): 339 nM; fold lower activity than heptyl carbamate 7 (IC50 hBChE) (hBChE [2]): approximately 10 fold
CN1c2ccc(OC(=O)NCCCCCCN3CCCCC3)cc2CN2CCc3ccccc3C21 (stereo not shown) [Compound 19p]	7.08 ± 0.04	83.7	14	0.129 ± 0.006	–	–	IC50 (hAChE): 1200 nM; plC50 ± SEM (hAChE) (hAChE): 5.91 ± 0.03; fold lower activity than heptyl carbamate 7 (IC50 hBChE) (hBChE [2]): approximately 10 fold
CN1c2ccc(OC(=O)NCCCCCCN3CCN(C(=O)OC(C)(C)C)CC3)cc2CN2CCc3ccccc3C21 (stereo not shown) [Compound 19q]	–	123	>100	–	0.70 ± 0.31	1550 ± 827	inhibition at 25 µM (hAChE): 15%; IC50 (hBChE [2]): 794 nM
CN1c2ccc(OC(=O)NCCCCCCN3CCNCC3)cc2CN2CCc3ccccc3C21 (stereo not shown) [Compound 19r]	7.09 ± 0.03	80.6	>100	1.44 ± 0.07	0.32 ± 0.13	121 ± 116	inhibition at 25 µM (hAChE; 25 µM): 16%
